Experiment [1] concerns T1, hyperpolarization-activated cation current (Ih) of GH3 cells; HCN2, HCN3, and a combination of HCN2 and HCN3.
T1 construct: native channels in GH3 cells; subunit composition not determined
Put plainly: whole-cell patch clamp. Format: cell-based. The settings on record: Ca2+-free Tyrode's solution with 0.5 mM CdCl2 and 1 μM TTX, 2 s step from -40 to -110 mV, pH 7.4, 20-25 °C, native current.

Experiment [2] concerns T2, M-type K+ current (IK(M)) of GH3 cells; KV7.2, KV7.3 and KV7.5 channels.
T2 construct: gene Kcnq2; native channels in GH3 cells; subunit composition not determined
Put plainly: whole-cell patch clamp. Format: cell-based. The note with it: high-K+ Ca2+-free solution with 1 μM TTX, 1 s step from -50 to -10 mV, pH 7.4, 20-25 °C, native current. From the text: whole-cell patch clamp on M-type K+ current (IK(M)) of GH3 cells; KV7.2, KV7.3 and KV7.5 channels | concentration–response curve for the CBD-induced inhibition of the density of IK(M)
For orientation: The patch-clamp technique gives a direct electrical read-out from membranes.

In the case of `C=C(C)[C@@H]1CCC(C)=C[C@H]1c1c(O)cc(CCCCC)cc1O` [Cannabidiol, 2-[(1R,6R)-3-methyl-6-(prop-1-en-2-yl)cyclohex-2-en-1-yl]-5-pentylbenzene-1,3-diol], the IC50 (usually the concentration that inhibits the measured activity by half) worked out at 3.3 µM in experiment [1] and 3.6 µM in experiment [2].

The record behind these values is paper PMC10604323, “Cannabidiol Modulates M-Type K^+ and Hyperpolarization-Activated Cation Currents” (Biomedicines, 2023).
